In ChEMBL document CHEMBL4811249, “Semisynthesis of Dolabellane Diterpenes: Oxygenated Analogues with Increased Activity against Zika and Chikungunya Viruses” (J Nat Prod, 2021):
Calls of active or inactive are those of the source. The rule behind the calls is not given here.

Tests used:
[1] = system: Chikungunya virus; experiment: Antiviral activity against CHIKV infected in African green monkey Vero cells assessed as inhibition of viral replication at 20 uM measured after 4 days relative to control; assay type: functional; settings: 96 h, time 4 day; for inhibition at 20 µM: Chikungunya virus, Vero
[2] = system: Zika virus; experiment: Antiviral activity against Zika virus infected in African green monkey Vero cells assessed as inhibition of viral replication at 20 uM measured after 4 days relative to control; assay type: functional; settings: 96 h, time 4 day; for inhibition at 20 µM: Zika virus, Vero; for inhibition (INH): 20 µM
[3] = (§1) Cytotoxicity against African green monkey Vero cells by MTT assay; assay type: cell-based; settings: chlorocebus sabaeus, Vero cells
[4] = system: Chikungunya virus; experiment: Antiviral activity against CHIKV infected in African green monkey Vero cells assessed as reduction in viral replication by measuring viral titre after 72 hrs by plaque reduction assay; assay type: functional, organism-based
[5] = Selectivity index, ratio of CC50 for African green monkey Vero cells to EC50 for CHIKV; assay type: toxicity; settings: read-out: Ratio CC50/EC50
[6] = system: Zika virus; experiment: Antiviral activity against Zika virus infected in African green monkey Vero cells assessed as reduction in viral replication by measuring viral titre after 72 hrs by plaque reduction assay; assay type: functional, organism-based
[7] = Selectivity index, ratio of CC50 for African green monkey Vero cells to EC50 for Zika virus; assay type: toxicity; settings: read-out: Ratio CC50/EC50
[8] = system: Vero; experiment: as §1; assay type: cell-based; settings: chlorocebus sabaeus, vero
[9] = system: Zika virus; experiment: Virucidal activity against Zika virus infected in African green monkey Vero cells at 20 uM measured after 4 hrs relative to control; assay type: functional
[10] = system: Chikungunya virus; experiment: Virucidal activity against CHIKV infected in African green monkey Vero cells at 5 to 20 uM measured after 4 hrs; assay type: functional, organism-based; settings: dose 5-20 µM
[11] = system: Chikungunya virus; experiment: Antiviral activity against CHIKV infected in African green monkey Vero cells assessed as inhibition of viral adsorption at 20 uM measured after 4 days by crystal violet staining based assay relative to control; assay type: functional; settings: 96 h, time 4 day
[12] = system: Zika virus; experiment: Antiviral activity against Zika virus infected in African green monkey Vero cells assessed as inhibition of viral adsorption at 20 uM measured after 4 days by crystal violet staining based assay relative to control; assay type: functional; settings: 96 h, time 4 day

Compound	inhibition at 20 µM [1] [%]	inhibition at 20 µM [2] [%]	CC50 [3] [µM]	other results
CC(C)=C1C(=O)C[C@@]2(C)C[C@H]3O[C@]3(C)CC/C=C(\C)CC[C@H]12	82	65	470	EC50 [4]: 9.5 µM; selectivity ratio [5]: 50
CC(C)=C1[C@H](O)C[C@@]2(C)C/C=C(\C)CC[C@H]3O[C@]3(C)CC[C@H]12	33	30	430	–
CC1=CC[C@@H](O)[C@]2(C)CC[C@@H]3C(=C(C)C)C(=O)C[C@@]3(C)C[C@@H]12	65	99	580	EC50 [6]: 2.1 µM; selectivity ratio [7]: 280
COC1(C)CC[C@@H](O)[C@]2(C)CC[C@@H]3C(=C(C)C)C(=O)C[C@@]3(C)C[C@@H]12 (relative stereo; 19)	–	–	–	inhibition (INH) ([1]; 20 µM): 40%; inhibition (INH) [2]: 59%; CC50 [8]: 650 µM
CC(C)=C1[C@H]2CC[C@@]3(C)O[C@@H]3CC/C(C)=C/C[C@]2(C)C[C@@H]1O	45	99	580	EC50 [6]: 1.2 µM; selectivity ratio [7]: 480; Activity [9]: 80%
CC(=O)OC/C1=C\CC/C(C)=C/C[C@]2(C)CC(=O)C(=C(C)C)[C@H]2CC1	0	30	250	–
C=C(C)C1=CC[C@@]2(C)C/C=C(\C)CC/C=C(\CO)CC[C@H]12	0	61	600	–
CC(=O)O[C@@H]1C[C@@]2(C)C/C=C(\C)CC/C=C(\C)CC[C@@H]2C1=C(C)C	99	62	100	EC50 [4]: 1.2 µM; selectivity ratio [5]: 83; Activity [10]: Active; inhibition at 20 µM [11]: > 90%
CC(C)=C1[C@H](O)C[C@@]2(C)C[C@H]3O[C@]3(C)CC[C@H]3O[C@]3(C)CC[C@H]12	44	49	960	–
CC(C)=C1C(=O)C[C@@]2(C)C/C=C(\C)CC/C=C(\C)CC[C@H]12 [DOLABELLANE]	0	0	150	–
COC1(C)CC[C@@H](O)[C@]2(C)CC[C@@H]3C(=C(C)C)C(=O)C[C@@]3(C)C[C@@H]12 (relative stereo; 18)	25	–	730	inhibition (INH) [2]: 100%; EC50 [6]: 1.8 µM; selectivity ratio [7]: 410; inhibition at 20 µM [12]: > 90%
CC(C)=C1C(=O)C[C@@]2(C)C/C=C(\C)CC/C=C(\C=O)CC[C@H]12	29	0	100	–
CC(C)=C1C(=O)C[C@@]2(C)C/C=C(\C=O)CC[C@H]3O[C@]3(C)CC[C@H]12	39	99	750	EC50 [6]: 0.9 µM; selectivity ratio [7]: 830; Activity [9]: 90%
CC(C)=C1[C@H]2CC/C(C)=C/CC/C(C)=C/C[C@]2(C)C[C@@H]1O	0	51	190	–
CC(C)=C1C(=O)C[C@@]2(C)C[C@H]3O[C@]3(C)CC[C@H]3O[C@]3(C)CC[C@H]12	0	56	960	–
C[C@H]1/C=C/[C@@]2(C)CC[C@@H](C(C)(C)O)[C@@H]2[C@@H](O)C[C@](C)(O)/C=C/C1	35	50	400	–
CC(C)=C1C(=O)C[C@@]2(C)C/C=C(\C)CC[C@H]3O[C@]3(C)CC[C@H]12	99	38	530	EC50 [4]: 1.2 µM; selectivity ratio [5]: 440; Activity [10]: Active; inhibition at 20 µM [11]: > 90%
CC(C)=C1[C@H]2CC[C@@]3(C)O[C@@H]3CC[C@@]3(C)O[C@@H]3C[C@]2(C)C[C@@H]1O	98	81	1000	EC50 [6]: 8.9 µM; EC50 [4]: 0.7 µM; selectivity ratio [7]: 110; selectivity ratio [5]: 1400
C=C(C)C1=CC[C@@]2(C)C[C@H]3O[C@]3(C)CC[C@H]3O[C@]3(C)CC[C@H]12	0	60	480	–
CC(C)=C1C(=O)C[C@@]2(C)C/C=C(\CO)CC[C@H]3O[C@]3(C)CC[C@H]12	71	60	800	EC50 [4]: 13 µM; selectivity ratio [5]: 61
NC(=O)c1ncn([C@@H]2O[C@H](CO)[C@@H](O)[C@H]2O)n1 [RIBAVIRIN]	97	93	–	–
